Experimental data published in US20260001898A1, “Heteroaryl compounds as inhibitors of TYK2/JAK1, composition and application thereof” (Accro Bioscience (HK) Limited, priority 2022, published 2026).

Columns and labels:
[1] = tested on: TYK2/JAK2 pathway; test: Western blot p-STAT4/STAT4 in IL-12-stimulated mouse spleen cells; type: cell-based, mice; settings: IL-12 50 ng/mL
Procedure: The spleen of mice was isolated and ground into single cells with bent tweezers. The single cells of the spleen were centrifuged for 5 minutes (400 g), and erythrocytes were lysed with Ammonium-Chloride-Potassium (ACK) solution and neutralized in 1640 medium, centrifuged for 5 minutes (400 g), and then re-suspended in 1640 medium. The spleen single cell suspension was counted, transferred to and incubated on a 6-well plate (5 million/well). The compounds to be tested were added. After 2 hours, IL-12 (50 ng/mL) was added to stimulate the cells for 1 h. The cells were collected and lysed with protein lysate. The protein was quantitatively tested by BCA kit. Finally, p-STAT4/STAT4 and internal reference protein […] were detected by Western blot.

[2] = tested on: JAK2/JAK2 pathway; test: Western blot p-STAT3/STAT3 in TPO-stimulated HEL cells; type: cell-based; settings: TPO 100 ng/mL
Procedure: HEL cells were digested by trypsin, re-suspended in 1640 medium and counted. The compounds to be measured were added to 6 well plates (1 million/per well) for 2 hours, and then thrombopoietin (TPO)(final concentration: 100 ng/mL) was added to stimulate cells for 30 minutes. The cells were collected and lysed with protein lysate. The protein was quantitatively tested by bicinchoninic acid (BCA) kit. Finally, p-STAT3/STAT3 and internal reference protein β-actin were detected by Western blot.

[3] = tested on: JAK1/JAK2 pathway; test: Western blot p-STAT1/STAT1 in IFN-γ-stimulated HT-29 cells; type: cell-based; settings: IFN-γ 100 ng/mL
Procedure: HT-29 cells were digested by trypsin and suspended in Dulbecco's Modified Eagle Medium (DMEM) and counted. The tested compounds were added into the 6 well plates (400 000/per well). After 2 hours, IFN-γ (100 ng/mL) was added to stimulate cells for 30 minutes. The cells were collected and lysed with protein lysate. The protein was quantitatively tested by BCA kit. Finally, p-STAT1/STAT1 and internal reference protein β-actin were detected by Western blot.

[4] = tested on: IFNα induced TYK2/JAK1 mediated STAT activation; test: Luciferase assay in L929 ISRE cells stimulated with IFN-α; type: cell-based; settings: Mus musculus, IFN-α 100 ng/mL; for inhibition at 0.05 µM: 50 nM compound, read-out: Inhibitory activity % (50 nM); for inhibition at 0.2 µM: 200 nM compound, read-out: Inhibitory activity % (200 nM); for inhibition at 1 µM: 1000 nM compound, read-out: Inhibitory activity % (1000 nM)
Procedure: • 1. L929 ISRE cells (5000 cells/well) were seeded on 96-well plates and incubated overnight at room temperature-; • 2. The cells were pretreated by adding different concentrations (10 nM, 50 nM, 100 nM, 200 nM or 1000 nM) of the test compounds for 2 hours; • 3. Added IFN-α (100 ng/mL) to stimulate cells for 6 hours; • 4. Removed the upper medium, add PBS (100 μL) and washed, then removed PBS; • 5. Added PLB lysis solution (50 μL) to each well, shook the well for 15 minutes; • 6. Transferred PLB lysis solution (30 μL) to a new 96-well whiteboard, added LAR II reagent (LAR II), then quickly read the 450 nm OD value with a plate washer; • 7. Added Stop & Glo reagent (30 μL), then read the 450 nm OD value using the plate washer. • 8. The final result was the OD value in step 6/OD value in step 7.

SMILES | inhibition of downstream STAT4 phosphorylation induced by IL-12 (TYK2/JAK2 pathway) [1] | effect on TPO-induced downstream STAT3 phosphorylation (JAK2/JAK2 pathway) [2] | effect on downstream STAT1 phosphorylation induced by IFN-γ (JAK1/JAK2 pathway) [3] | inhibition at 0.05 µM [4] [%] | inhibition at 0.2 µM [4] [%] | inhibition at 1 µM [4] [%]
[2H]C([2H])([2H])n1nc(-c2cccc(Nc3cc(Nc4cc(C#N)ccn4)nnc3C(N)=O)c2OC)cc1P(=O)(C1CC1)C1CC1 [Compound A49] | effectively inhibited the downstream STAT4 phosphorylation induced by IL-12 | had no effect on TPO-induced downstream STAT3 phosphorylation | inhibited JAK1/JAK2 pathway in a concentration-dependent manner | 33 | 86 | 87
COc1c(Nc2cc(Nc3cc(C#N)ccn3)nnc2C(N)=O)cccc1-c1cc(P(=O)(C2CC2)C2CC2)n(C)n1 [Compound A35] | effectively inhibited the downstream STAT4 phosphorylation induced by IL-12 | had no effect on TPO-induced downstream STAT3 phosphorylation | inhibited JAK1/JAK2 pathway in a concentration-dependent manner | 54 | 84 | 98
COc1c(Nc2cc(Nc3cc(C)ccn3)nnc2C(N)=O)cccc1-c1cc(P(C)(C)=O)n(C)n1 [Compound A29] | effectively inhibited the downstream STAT4 phosphorylation induced by IL-12 | had no effect on TPO-induced downstream STAT3 phosphorylation | inhibited JAK1/JAK2 pathway in a concentration-dependent manner |  |  | 93
COc1c(Nc2cc(Nc3cc(C)ccn3)nnc2C(N)=O)cccc1-c1cc(P(=O)(C2CC2)C2CC2)n(C)n1 [Compound A12] | effectively inhibited the downstream STAT4 phosphorylation induced by IL-12 | had no effect on TPO-induced downstream STAT3 phosphorylation | inhibited JAK1/JAK2 pathway in a concentration-dependent manner | 25 | 33 | 93
[2H]C([2H])([2H])n1nc(-c2cccc(Nc3cc(Nc4ccc(OC)cn4)nnc3C(N)=O)c2OC)cc1P(=O)(C1CC1)C1CC1 [Compound A50] | effectively inhibited the downstream STAT4 phosphorylation induced by IL-12 | had no effect on TPO-induced downstream STAT3 phosphorylation | inhibited JAK1/JAK2 pathway in a concentration-dependent manner |  |  | 77
COc1c(Nc2cc(NC(=O)C3CC3)ncc2C(N)=O)cccc1-c1cc(P(=O)(C2CC2)C2CC2)n(C)n1 [Compound A2, 6-(cyclopropanecarboxamido)-4-((3-(5-(dicyclopropylphosphoryl)-1-methyl-1H-pyrazol-3-yl)-2-methoxyphenyl)amino)nicotinamide] |  |  | inhibited JAK1/JAK2 pathway in a concentration-dependent manner | 26 | 57 | 94
COc1c(Nc2cc(NC(=O)C3CC3)nnc2C(N)=O)cc(F)cc1-c1cc(P(=O)(C2CC2)C2CC2)n(C)n1 [Compound A8] | effectively inhibited the downstream STAT4 phosphorylation induced by IL-12 |  | inhibited JAK1/JAK2 pathway in a concentration-dependent manner | 84 | 88 | 96
COc1c(Nc2cc(Nc3ccn(C)n3)nnc2C(N)=O)cccc1-c1cc(P(=O)(C2CC2)C2CC2)n(C)n1 [Compound A17] | effectively inhibited the downstream STAT4 phosphorylation induced by IL-12 | had no effect on TPO-induced downstream STAT3 phosphorylation | inhibited JAK1/JAK2 pathway in a concentration-dependent manner |  | 42 | 82
N#CC[C@H](C1CCCC1)n1cc(-c2ncnc3[nH]ccc23)cn1 [Ruxolitinib, reference compound] |  | can inhibit the JAK2/JAK2 pathway | inhibited JAK1/JAK2 pathway in a concentration-dependent manner |  |  | 
COc1c(Nc2cc(Nc3ccc(F)cn3)nnc2C(N)=O)cccc1-c1cc(P(=O)(C2CC2)C2CC2)n(C)n1 [Compound A9] | effectively inhibited the downstream STAT4 phosphorylation induced by IL-12 |  | inhibited JAK1/JAK2 pathway in a concentration-dependent manner |  |  | 
[2H]C([2H])([2H])n1nc(-c2cc(F)cc(Nc3cc(Nc4cc(C)ccn4)nnc3C(N)=O)c2OC)cc1P(C)(C)=O [Compound A56] |  |  |  | 31 | 70 | 95
COc1c(Nc2cc(Nc3cc(C)ccn3)nnc2C(N)=O)cccc1-c1cc(P(C)(C)=O)n(C2CC2)n1 [Compound A52] |  |  |  |  | 9 | 63
[2H]C([2H])([2H])n1nc(-c2cccc(Nc3cc(NC(=O)C4CC4)nnc3C(N)=O)c2OC)cc1P(=O)(C1CC1)C1CC1 [Compound A24, 6-(cyclopropanecarboxamido)-4-((3-(5-(dicyclopropylphosphoryl)-1-(methyl-d3)-1H-pyrazol-3-yl)-2-methoxyphenyl)amino)pyridazine-3-carboxamide] |  |  |  | 39 | 90 | 95
COc1c(Nc2cc(Nc3cc(C)ccn3)nnc2C(N)=O)cc(F)cc1-c1cc(P(C)(C)=O)n(C)n1 [Compound A51, 4-((3-(5-(dimethylphosphoryl)-1-methyl-1H-pyrazol-3-yl)-5-fluoro-2-methoxyphenyl)amino)-6-((4-methylpyridin-2-yl)amino)pyridazine-3-carboxamide] |  |  |  | 55 | 82 | 86
COc1c(Nc2cc(Nc3ccccn3)nnc2C(N)=O)cccc1-c1cc(P(=O)(C2CC2)C2CC2)n(C)n1 [Compound A4, 4-((3-(5-(dicyclopropylphosphoryl)-1-methyl-1H-pyrazol-3-yl)-2-methoxyphenyl)amino)-6-(pyridin-2-ylamino)pyridazine-3-carboxamide] |  |  |  | 61 | 93 | 99
COc1c(Nc2cc(Nc3ccc(F)cn3)nnc2C(N)=O)cccc1-c1cc(P(C)(C)=O)n(C)n1 [Compound A33] |  |  |  | 45 | 62 | 81
[2H]C([2H])([2H])n1nc(-c2cccc(Nc3cc(Nc4cnccn4)nnc3C(N)=O)c2OC)cc1P(=O)(C1CC1)C1CC1 [Compound A59] |  |  |  |  |  | 86
COc1c(Nc2cc(Nc3cc(C)ccn3)nnc2C(N)=O)cncc1-c1cc(P(C)(C)=O)n(C2CC2)n1 [Compound A58] |  |  |  |  |  | 86
COc1c(Nc2cc(NC(=O)C3CC3)ncc2C(N)=O)cccc1-c1cnc(P(C)(C)=O)cn1 [Compound A63, 6-(cyclopropanecarboxamido)-4-((3-(5-(dimethylphosphoryl)pyrazin-2-yl)-2-methoxyphenyl)amino)nicotinamide] |  |  |  | 33 | 43 | 75
